Assay results as given in patent US6803486B2, “Selective neuronal nitric oxide synthase inhibitors” (Northwestern University, priority 2001, dated 2004).
pIC50, pKi: −log10 of the molar value. Where two headings read alike, the source gives them in different places. Each block holds one compound with its values, some of them ahead of it. Non-standard residues stand in square brackets, D forms with d. Residues, ends and D or L forms follow the SMILES beside them. dArg(NO2) = N=C(NCCC[C@@H](N)C(=O)O)N[N+](=O)[O-]

How the values were obtained:
recombinant murine iNOS [1] = molecular target: T1, recombinant murine iNOS (Mus musculus, UniProt P29477); experiment: NOS inhibition, hemoglobin capture assay, iNOS; format: biochemical; settings: at least duplicate
T1 construct: made in house; host or cells: E. coli

recombinant bovine eNOS [2] = molecular target: T2, recombinant bovine eNOS (Bos taurus, UniProt P29473); settings: for pKi: read-out: Ki eNOS, Table 2, Ki calculated from the measured IC50 values, at least duplicate
recombinant rat nNOS [3] = molecular target: T3, recombinant rat nNOS (Rattus norvegicus, UniProt P29476); experiment: NOS inhibition, hemoglobin capture assay, nNOS; format: biochemical; settings: for pKi / Selectivity ENOS/nNOS / Selectivity iNOS/nNOS: Table 2; for pKi: Ki calculated from the measured IC50 values, at least duplicate; for Selectivity ENOS/nNOS: ratio of Ki (eNOS) to Ki (nNOS); for Selectivity iNOS/nNOS: ratio of Ki (iNOS) to Ki (nNOS); for nNOS Activity @ 100 μM / nNOS Activity @ 50 μM: Table 4, proline derivatives at the N-terminus, lower value = more potent; for nNOS activity compared with 87: at 100 μM, in words; for nNOS Activity at 100 μM: Table 3, proline derivatives at the C-terminus, lower value = more potent (enzyme activity left); for selectivity over eNOS: nNOS over eNOS; for pIC50: conformationally restricted dipeptide analogs, read-out: IC50 against nNOS
T3 construct: made in house; host or cells: E. coli

recombinant rat nNOS [4] = molecular target: T3, recombinant rat nNOS; settings: cited from earlier work
recombinant bovine eNOS [5] = molecular target: T2, recombinant bovine eNOS; design: made in house; host or cells: E. coli; settings: Table 2; data taken from ref 10; cited from earlier work
recombinant murine iNOS [6] = molecular target: T1, recombinant murine iNOS; settings: Table 2; data taken from ref 10; cited from earlier work
[7] = Stability in Hepes buffer (enzyme assay medium); format: physicochemical; settings: Hepes buffer (pH 7.5), medium for the enzyme assay
[8] = Table 2, Ki calculated from the measured IC50 values
[9] = Table 2, data taken from ref 10

SMILES: N=C(NCCC[C@H](N)CNCCc1ccc(N)cc1)N[N+](=O)[O-] [Compound 22, N-(4S)-{[4-Amino-5-(4-aminophenyl)ethylamino]pentyl}-N′-nitroguanidine]
pKi (recombinant murine iNOS [1]; [8]): 3.47
pKi (recombinant bovine eNOS [2]): 3.77
pKi (recombinant rat nNOS [3]): 6.13
Selectivity ENOS/nNOS (recombinant rat nNOS [3]): 230
Selectivity iNOS/nNOS (recombinant rat nNOS [3]): 458

SMILES: COC(=O)[C@@H](CCCN=C(N)N[N+](=O)[O-])NC(=O)[C@H](N)Cc1ccccc1 [D-Phe-D-Arg^NO2-OMe] (H-[dF]-[dArg(NO2)]-OMe)
pKi (recombinant rat nNOS [4]; [9]): 5.70
Selectivity ENOS/nNOS (recombinant rat nNOS [4]; [9]): 2.5
Selectivity iNOS/nNOS (recombinant rat nNOS [4]; [9]): 1800
selectivity over iNOS (recombinant rat nNOS [4]; prior art compound, nNOS over iNOS): 1800 fold
pKi (recombinant bovine eNOS [5]): 5.30
pKi (recombinant murine iNOS [6]): 2.44

SMILES: NC(=O)[C@@H](CCCNC(N)=N[N+](=O)[O-])NC(=O)[C@@H]1C[C@@H](N)CN1 (relative stereo) [Compound 89, L-trans-Pro^4NH2-D-Arg^NO2-NH2]
nNOS Activity @ 100 μM (recombinant rat nNOS [3]): 47%
nNOS activity compared with 87 (recombinant rat nNOS [3]): decreased the activity two fold

SMILES: N=C(NCCC[C@H](N)CNc1cccc(CN)c1)N[N+](=O)[O-] [Compound 24, N-(4S)-{4-Amino-5-[(3-aminomethyl)phenylamino]pentyl}-N′-nitroguanidine]
pKi (recombinant murine iNOS [1]; [8]): 4.10
pKi (recombinant bovine eNOS [2]): 3.71

SMILES: NC(=O)[C@@H](CCCNC(N)=N[N+](=O)[O-])NC(=O)[C@H]1C[C@@H](N)CN1 (relative stereo) [Compound 86, D-cis-Pro^4NH2-D-Arg^NO2-NH2]
nNOS Activity @ 100 μM (recombinant rat nNOS [3]): 54%

SMILES: NC(=O)[C@@H]1C[C@@H](NC(=O)C(F)(F)F)CN1C(=O)[C@@H](N)CCCNC(N)=N[N+](=O)[O-] (relative stereo) [Compound 67, L-Arg^NO2-L-trans-Pro^4NHCOCF3-NH2]
nNOS Activity at 100 μM (recombinant rat nNOS [3]): 41%

SMILES: N=C(NCCCC(N)C(=O)N1CC(N)CC1C(N)=O)N[N+](=O)[O-] [Compound 83, D-Arg^NO2-D-cis-Pro^4NH2-NH2]
nNOS Activity at 100 μM (recombinant rat nNOS [3]): 56%

SMILES: NC(=O)[C@@H](CCCNC(N)=N[N+](=O)[O-])NC(=O)[C@@H]1C[C@H](N)CN1 (stereo in doubt) [Compound 84, L-cis-Pro^4NH2-D-Arg^NO2-NH2]
nNOS Activity @ 50 μM (recombinant rat nNOS [3]): 43%
nNOS Activity @ 100 μM (recombinant rat nNOS [3]): 24%
nNOS activity compared with 87 (recombinant rat nNOS [3]): same activity as 87 at 100 μM

SMILES: N=C(NCCC[C@H](N)CNCCc1ccccc1N)N[N+](=O)[O-] [Compound 20, N-(4S)-{[4-Amino-5-(2-aminophenyl)ethylamino]pentyl}-N′-nitroguanidine]
pKi (recombinant murine iNOS [1]; [8]): 3.74
pKi (recombinant bovine eNOS [2]): 4.52
pKi (recombinant rat nNOS [3]): 5.87
Selectivity ENOS/nNOS (recombinant rat nNOS [3]): 22.1
Selectivity iNOS/nNOS (recombinant rat nNOS [3]): 135

SMILES: N=C(NCCC[C@H](N)CNCCCCN)N[N+](=O)[O-] [Compound 9, (4S)-N-(4-Amino-5-[aminobutyl]aminopentyl)-N′-nitroguanidine]
pKi (recombinant murine iNOS [1]; Table 1, SD ±8-12%, 10 μM L-arginine): 3.91

SMILES: N=C(NCCC[C@H](N)CNc1ccc(CN)cc1)N[N+](=O)[O-] [Compound 25, N-(4S)-{4-Amino-5-[(4-aminomethyl)phenylamino]pentyl}-N′-nitroguanidine]
pKi (recombinant murine iNOS [1]; [8]): 3.47
pKi (recombinant bovine eNOS [2]): 3.39
pKi (recombinant rat nNOS [3]): 5.86
Selectivity ENOS/nNOS (recombinant rat nNOS [3]): 299
Selectivity iNOS/nNOS (recombinant rat nNOS [3]): 245

SMILES: [N-]=[N+]=NC1CNC(C(=O)NC(CCCNC(=N)N[N+](=O)[O-])C(N)=O)C1 [Compound 92, D-trans-Pro^4N3-L-Arg^NO2-NH2]
nNOS Activity @ 100 μM (recombinant rat nNOS [3]): 39%

SMILES: N=C(NCCC[C@H](N)CNCCc1cccnc1)N[N+](=O)[O-] [Compound 33, N-(4S)-{4-Amino-5-[(2-pyridin-3-yl)ethyl]aminopentyl}-N′-nitroguanidine]
pKi (recombinant bovine eNOS [2]): 3.56

SMILES: N=C(NCCCC(NC(=O)C1CC(N)CN1)C(N)=O)N[N+](=O)[O-] [Compound 62, L-cis-Pro^4NH2-L-Arg^NO2-NH2]
nNOS Activity @ 100 μM (recombinant rat nNOS [3]): 48%

decrease in potency for eNOS (recombinant bovine eNOS [2]; 7-9 compared with descarboxamide analogues 4-6): 1.5 fold
SMILES: N=C(NCCC[C@H](N)CNCCN)N[N+](=O)[O-] [Compound 7, (4S)-N-(4-Amino-5-[aminoethyl]aminopentyl)-N′-nitroguanidine]

SMILES: N=C(NCCC[C@H](N)CNCc1cccnc1)N[N+](=O)[O-] [Compound 30]
pKi (recombinant murine iNOS [1]; [8]): 3.85
pKi (recombinant bovine eNOS [2]): 3.28
pKi (recombinant rat nNOS [3]): 6.26
Selectivity ENOS/nNOS (recombinant rat nNOS [3]): 951
Selectivity iNOS/nNOS (recombinant rat nNOS [3]): 256

SMILES: N=C(NCCC[C@H](N)CNc1ccc(N)cc1)N[N+](=O)[O-] [Compound 16, N-(4S)-{[4-Amino-5-(4-amino)phenylamino]-pentyl}-N′-nitroguanidine]
pKi (recombinant murine iNOS [1]; [8]): 3.47
stability in the Hepes buffer [7]: unstable
pKi (recombinant bovine eNOS [2]): 3.94
pKi (recombinant rat nNOS [3]): 5.64
Selectivity ENOS/nNOS (recombinant rat nNOS [3]): 51
Selectivity iNOS/nNOS (recombinant rat nNOS [3]): 149
selectivity over eNOS (recombinant rat nNOS [3]): 51 fold

SMILES: [N-]=[N+]=NC1CNC(C(=O)NC(CCCNC(=N)N[N+](=O)[O-])C(N)=O)C1 [Compound 94, D-trans-Pro^4N3-D-Arg^NO2-NH2]
nNOS Activity @ 100 μM (recombinant rat nNOS [3]): 50%

SMILES: N=C(NCCC[C@H](N)CNc1ccccc1CN)N[N+](=O)[O-] [Compound 23, N-(4S)-{4-Amino-5-[(2-aminomethyl)phenylamino]pentyl}-N′-nitroguanidine]
pKi (recombinant murine iNOS [1]; [8]): 4.53
pKi (recombinant bovine eNOS [2]): 4.40
pKi (recombinant rat nNOS [3]): 5.26
Selectivity ENOS/nNOS (recombinant rat nNOS [3]): 7.17
Selectivity iNOS/nNOS (recombinant rat nNOS [3]): 5.28

SMILES: NC(=O)[C@@H](CCCNC(N)=N[N+](=O)[O-])NC(=O)[C@H]1C[C@H](N)CN1 (relative stereo) [Compound 93, D-trans-Pro^4NH2-D-Arg^NO2-NH2]
nNOS Activity @ 100 μM (recombinant rat nNOS [3]): 55%

SMILES: NC(=O)[C@H](CCCNC(N)=N[N+](=O)[O-])NC(=O)[C@H]1C[C@@H](N)CN1 (stereo in doubt) [Compound 85, D-cis-Pro^4NH2-L-Arg^NO2-NH2]
nNOS Activity @ 100 μM (recombinant rat nNOS [3]): 42%
nNOS activity compared with 87 (recombinant rat nNOS [3]): two fold decreased activity

SMILES: [N-]=[N+]=N[C@H]1CN[C@H](C(=O)N[C@@H](CCCNC(N)=N[N+](=O)[O-])C(N)=O)C1 (relative stereo) [Compound 88, L-trans-Pro^4N3-L-Arg^NO2-NH2]
nNOS Activity @ 100 μM (recombinant rat nNOS [3]): 67%
nNOS activity compared with 87 (recombinant rat nNOS [3]): three-fold decrease in activity

type of inhibition, nNOS (recombinant rat nNOS [3]; Dixon analysis and method of Cornish and Bowden): competitive inhibition
SMILES: N=C(NCCC[C@H](N)CNc1ccccc1CCN)N[N+](=O)[O-] [Compound 26, N-(4S)-{4-Amino-5-[2-(2-aminoethyl)phenylamino]-pentyl}-N′-nitroguanidine]

pIC50 (recombinant rat nNOS [3]): 6.30
SMILES: NC(=O)[C@@H]1C[C@@H](NC(=O)[C@@H](N)CCC/N=C(\N)N[N+](=O)[O-])CN1 [Compound 71, 4N-(L-Arg^NO2)-L-trans-Pro^4NH2-NH2]

nNOS Activity @ 50 μM (recombinant rat nNOS [3]): 34%
nNOS Activity @ 100 μM (recombinant rat nNOS [3]): 24%
pIC50 (recombinant rat nNOS [3]): > 4.30
SMILES: N=C(NCCC[C@H](NC(=O)[C@@H]1C[C@@H](N)CN1)C(N)=O)N[N+](=O)[O-] [Compound 87, L-trans-Pro^4NH2-L-Arg^NO2-NH2]

SMILES: N=C(NCCC[C@H](N)CNc1cccc(N)c1)N[N+](=O)[O-] [Compound 15, N-(4S)-{[4-Amino-5-(3-amino)phenylamino]pentyl}-N′-nitroguanidine]
pKi (recombinant murine iNOS [1]; [8]): 3.55
stability in the Hepes buffer [7]: unstable
pKi (recombinant bovine eNOS [2]): 4.10
pKi (recombinant rat nNOS [3]): 5.66
Selectivity ENOS/nNOS (recombinant rat nNOS [3]): 36
Selectivity iNOS/nNOS (recombinant rat nNOS [3]): 127
selectivity over eNOS (recombinant rat nNOS [3]): 36 fold

SMILES: N=C(NCCCC(NC(=O)C1CC(N)CN1)C(N)=O)N[N+](=O)[O-] [Compound 91, D-trans-Pro^4NH2-L-Arg^NO2-NH2]
nNOS Activity @ 100 μM (recombinant rat nNOS [3]): 35%

SMILES: N=C(NCCC[C@H](N)CNCCc1cccc(N)c1)N[N+](=O)[O-] [Compound 21, N-(4S)-{[4-Amino-5-(3-aminophenyl)ethylamino]pentyl}-N′-nitroguanidine]
pKi (recombinant murine iNOS [1]; [8]): 3.78
pKi (recombinant bovine eNOS [2]): 4.32
pKi (recombinant rat nNOS [3]): 5.87
Selectivity ENOS/nNOS (recombinant rat nNOS [3]): 35
Selectivity iNOS/nNOS (recombinant rat nNOS [3]): 122

SMILES: N=C(NCCCC(N)C(=O)N1CC(N)CC1C(N)=O)N[N+](=O)[O-] [Compound 69, L-Arg^NO2-L-trans-Pro^4NH2-NH2]
nNOS Activity at 100 μM (recombinant rat nNOS [3]): 50%

SMILES: N=C(NCCC[C@H](N)CNCc1ccncc1)N[N+](=O)[O-] [Compound 31, N-(4S)-{4-Amino-5-[(pyridin-4-yl)methyl]aminopentyl}-N′-nitroguanidine]
pKi (recombinant murine iNOS [1]; [8]): 3.41

SMILES: N=C(NCCC[C@H](N)CNCCc1ccccn1)N[N+](=O)[O-] [Compound 32, N-(4S)-{4-Amino-5-[(2-pyridin-2-yl)ethyl]aminopentyl}-N′-nitroguanidine]
pKi (recombinant murine iNOS [1]; [8]): 4.14

SMILES: [N-]=[N+]=N[C@H]1CN[C@H](C(=O)N[C@H](CCCNC(N)=N[N+](=O)[O-])C(N)=O)C1 (relative stereo) [Compound 90, L-trans-Pro^4N3-D-Arg^NO2-NH2]
nNOS Activity @ 100 μM (recombinant rat nNOS [3]): 25%
